Source: paper PMC9620001 (Journal of Medicinal Chemistry, 2022)
Converted amounts (≈) assume the structure as drawn. Read-outs that look alike come from different tables or passages of the source.

What was measured:
physchem = conditions: aqueous buffer, kinetic from dmso stock
Human PKa = Human PKa (Homo sapiens, UniProt P03952); experiment: biochemical; type: biochemical
Dog pharmacokinetics = type: in vivo, beagle dogs; conditions: male, beagle, plasma, iv, 1 mg/kg
plasmin = plasmin (Homo sapiens, UniProt P00747); experiment: biochemical; conditions: IC50 / off target protease selectivity
Chain of plasmin (P00747 581-810 limits assumed): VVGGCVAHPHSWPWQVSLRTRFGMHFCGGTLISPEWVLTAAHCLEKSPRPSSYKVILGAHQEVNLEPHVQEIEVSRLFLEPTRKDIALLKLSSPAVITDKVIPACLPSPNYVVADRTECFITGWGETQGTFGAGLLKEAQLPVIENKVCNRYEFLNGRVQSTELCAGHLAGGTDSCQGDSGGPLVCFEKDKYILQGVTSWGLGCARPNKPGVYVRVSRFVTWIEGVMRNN
Chain of plasmin (P00747 97-580 partner limits assumed): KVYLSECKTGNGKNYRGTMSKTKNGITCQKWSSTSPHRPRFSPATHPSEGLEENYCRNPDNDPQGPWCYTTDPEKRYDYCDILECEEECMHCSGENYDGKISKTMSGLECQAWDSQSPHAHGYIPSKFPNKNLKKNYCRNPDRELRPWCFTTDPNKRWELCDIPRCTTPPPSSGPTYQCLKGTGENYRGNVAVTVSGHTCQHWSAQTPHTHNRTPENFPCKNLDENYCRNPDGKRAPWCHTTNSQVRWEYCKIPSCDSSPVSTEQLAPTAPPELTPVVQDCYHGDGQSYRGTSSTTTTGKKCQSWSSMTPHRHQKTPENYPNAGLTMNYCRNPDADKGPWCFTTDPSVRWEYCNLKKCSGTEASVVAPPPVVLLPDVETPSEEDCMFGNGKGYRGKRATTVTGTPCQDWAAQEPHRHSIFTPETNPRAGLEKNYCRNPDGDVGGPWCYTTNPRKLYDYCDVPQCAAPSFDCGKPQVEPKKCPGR

trypsin = conditions: read-out: IC50 / off target protease selectivity, trypsin
thrombin = thrombin (Homo sapiens, UniProt P00734); experiment: biochemical; conditions: IC50 / off target protease selectivity
factor XIa = factor XIa (Homo sapiens, UniProt P03951); experiment: biochemical; conditions: IC50 / off target protease selectivity, FXIa
Chain of factor XIa (P03951 388-625 limits assumed): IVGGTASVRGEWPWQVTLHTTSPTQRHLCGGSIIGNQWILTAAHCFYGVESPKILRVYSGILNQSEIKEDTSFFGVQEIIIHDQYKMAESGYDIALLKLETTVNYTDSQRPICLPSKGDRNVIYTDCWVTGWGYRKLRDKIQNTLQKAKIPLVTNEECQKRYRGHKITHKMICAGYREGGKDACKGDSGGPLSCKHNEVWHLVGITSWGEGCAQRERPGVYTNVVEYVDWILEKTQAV
Chain of factor XIa (P03951 19-387 partner limits assumed): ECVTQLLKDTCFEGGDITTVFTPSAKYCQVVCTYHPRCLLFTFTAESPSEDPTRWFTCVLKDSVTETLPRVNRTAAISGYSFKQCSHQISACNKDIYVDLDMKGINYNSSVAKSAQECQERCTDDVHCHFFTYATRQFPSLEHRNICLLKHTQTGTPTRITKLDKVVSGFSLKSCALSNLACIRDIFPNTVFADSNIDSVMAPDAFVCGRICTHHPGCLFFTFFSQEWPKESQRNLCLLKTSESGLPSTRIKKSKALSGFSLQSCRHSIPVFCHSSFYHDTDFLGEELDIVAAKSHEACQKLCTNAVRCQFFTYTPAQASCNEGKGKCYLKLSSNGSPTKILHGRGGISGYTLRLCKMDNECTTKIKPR

[1] = Human plasma protein binding; type: in vitro ADME; conditions: % bound
tissue kallikrein (KLK1) = tissue kallikrein (KLK1) (Homo sapiens, UniProt P06870); experiment: biochemical; conditions: IC50 / off target protease selectivity
Chain of tissue kallikrein (KLK1) (P06870 25-262): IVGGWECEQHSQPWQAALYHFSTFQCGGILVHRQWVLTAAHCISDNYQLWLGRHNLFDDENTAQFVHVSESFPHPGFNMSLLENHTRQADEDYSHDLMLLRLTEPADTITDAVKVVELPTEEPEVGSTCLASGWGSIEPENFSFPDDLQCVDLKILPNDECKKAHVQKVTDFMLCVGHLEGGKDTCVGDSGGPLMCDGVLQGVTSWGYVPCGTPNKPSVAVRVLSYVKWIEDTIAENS

factor XIIa = target: T1, factor XIIa (Homo sapiens, UniProt P00748); experiment: biochemical; conditions: IC50 / off target protease selectivity, FXIIa
T1 sequence (P00748 373-615 limits assumed): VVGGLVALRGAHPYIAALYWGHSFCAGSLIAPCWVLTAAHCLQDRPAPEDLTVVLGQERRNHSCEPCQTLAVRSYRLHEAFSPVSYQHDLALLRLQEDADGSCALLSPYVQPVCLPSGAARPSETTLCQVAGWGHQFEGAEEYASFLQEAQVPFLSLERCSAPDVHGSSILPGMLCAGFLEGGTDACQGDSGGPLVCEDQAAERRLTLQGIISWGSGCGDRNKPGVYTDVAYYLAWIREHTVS

panel of CYP450 enzymes = experiment: CYP450 inhibition panel as a whole; conditions: up to 25 μM
Rat pharmacokinetics = type: in vivo, Sprague-Dawley rats; conditions: male, Sprague-Dawley, plasma, iv, 1 mg/kg
factor Xa = factor Xa (Homo sapiens, UniProt P00742); conditions: read-out: IC50 / off target protease selectivity, FXa
Chain of factor Xa (P00742 235-488 limits assumed): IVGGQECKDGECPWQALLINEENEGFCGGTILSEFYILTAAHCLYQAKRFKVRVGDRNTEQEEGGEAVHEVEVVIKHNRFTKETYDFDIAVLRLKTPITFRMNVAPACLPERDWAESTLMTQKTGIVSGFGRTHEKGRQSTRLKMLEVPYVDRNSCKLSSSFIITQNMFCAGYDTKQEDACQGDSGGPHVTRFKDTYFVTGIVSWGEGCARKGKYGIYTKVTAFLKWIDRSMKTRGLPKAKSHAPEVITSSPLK
Chain of factor Xa (P00742 41-179 partner limits assumed): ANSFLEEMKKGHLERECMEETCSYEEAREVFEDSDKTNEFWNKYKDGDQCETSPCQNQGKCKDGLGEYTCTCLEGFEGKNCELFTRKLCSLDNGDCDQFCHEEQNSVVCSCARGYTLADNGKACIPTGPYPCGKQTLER

bacterial mutagenicity = experiment: Non-GLP bacterial mutagenicity Ames test
tryptase = experiment: Protease selectivity, fluorogenic substrate cleavage assay; type: biochemical, human; conditions: read-out: IC50 / off target protease selectivity, tryptase
[2] = Measured pKa, PION UV-metric method; type: physicochemical
hERG channel = hERG channel (Homo sapiens, UniProt Q12809); experiment: hERG whole-cell patch clamp; conditions: highest level tested 33 μM
Chain of hERG channel (Q12809 whole entry): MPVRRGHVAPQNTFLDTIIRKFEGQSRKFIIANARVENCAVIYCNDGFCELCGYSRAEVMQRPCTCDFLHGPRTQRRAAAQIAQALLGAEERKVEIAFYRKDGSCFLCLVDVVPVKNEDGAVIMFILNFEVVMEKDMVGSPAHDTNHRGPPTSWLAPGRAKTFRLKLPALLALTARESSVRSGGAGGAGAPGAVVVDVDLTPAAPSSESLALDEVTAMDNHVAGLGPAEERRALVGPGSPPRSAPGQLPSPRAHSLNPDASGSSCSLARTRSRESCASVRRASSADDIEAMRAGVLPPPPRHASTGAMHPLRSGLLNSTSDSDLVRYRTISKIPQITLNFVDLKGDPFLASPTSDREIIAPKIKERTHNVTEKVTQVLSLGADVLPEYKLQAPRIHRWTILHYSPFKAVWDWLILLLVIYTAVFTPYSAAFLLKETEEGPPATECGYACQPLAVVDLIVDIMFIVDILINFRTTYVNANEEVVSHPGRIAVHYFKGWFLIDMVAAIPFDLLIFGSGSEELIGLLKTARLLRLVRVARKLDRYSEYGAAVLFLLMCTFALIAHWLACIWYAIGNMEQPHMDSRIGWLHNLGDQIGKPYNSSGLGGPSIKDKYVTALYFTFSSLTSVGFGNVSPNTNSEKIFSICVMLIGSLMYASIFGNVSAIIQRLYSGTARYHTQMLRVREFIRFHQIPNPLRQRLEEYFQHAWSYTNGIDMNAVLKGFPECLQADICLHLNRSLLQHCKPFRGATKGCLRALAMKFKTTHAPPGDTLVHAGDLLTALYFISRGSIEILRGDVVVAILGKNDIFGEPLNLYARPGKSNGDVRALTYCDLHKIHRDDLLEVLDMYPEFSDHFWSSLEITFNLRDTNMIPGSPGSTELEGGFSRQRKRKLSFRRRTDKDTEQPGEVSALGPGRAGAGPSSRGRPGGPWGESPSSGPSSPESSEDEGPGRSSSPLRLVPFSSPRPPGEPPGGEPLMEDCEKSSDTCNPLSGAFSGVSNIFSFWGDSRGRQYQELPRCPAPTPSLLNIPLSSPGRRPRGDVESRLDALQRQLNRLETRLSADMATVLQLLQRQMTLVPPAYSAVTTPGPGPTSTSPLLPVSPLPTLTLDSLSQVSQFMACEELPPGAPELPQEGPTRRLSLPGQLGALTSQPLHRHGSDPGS

in vitro [3] = conditions: human, Caco-2, pH 7.4
in vitro [4] = conditions: human, microsomes
[5] = Thermodynamic solubility in FaSSIF / FaSSGF; type: physicochemical; conditions: pH 6.5, solubility FaSSIF, theoretical concentration 1 mg/mL

Chain of Human PKa (P03952 391-638 limits assumed): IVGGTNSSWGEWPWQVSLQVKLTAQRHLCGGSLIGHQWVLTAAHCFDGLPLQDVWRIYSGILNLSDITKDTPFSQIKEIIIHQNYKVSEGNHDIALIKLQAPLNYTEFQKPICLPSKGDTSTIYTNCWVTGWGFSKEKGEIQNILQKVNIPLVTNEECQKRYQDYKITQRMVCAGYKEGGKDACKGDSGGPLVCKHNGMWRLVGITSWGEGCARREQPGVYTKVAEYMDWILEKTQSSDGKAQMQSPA
Chain of Human PKa (P03952 20-390 partner limits assumed): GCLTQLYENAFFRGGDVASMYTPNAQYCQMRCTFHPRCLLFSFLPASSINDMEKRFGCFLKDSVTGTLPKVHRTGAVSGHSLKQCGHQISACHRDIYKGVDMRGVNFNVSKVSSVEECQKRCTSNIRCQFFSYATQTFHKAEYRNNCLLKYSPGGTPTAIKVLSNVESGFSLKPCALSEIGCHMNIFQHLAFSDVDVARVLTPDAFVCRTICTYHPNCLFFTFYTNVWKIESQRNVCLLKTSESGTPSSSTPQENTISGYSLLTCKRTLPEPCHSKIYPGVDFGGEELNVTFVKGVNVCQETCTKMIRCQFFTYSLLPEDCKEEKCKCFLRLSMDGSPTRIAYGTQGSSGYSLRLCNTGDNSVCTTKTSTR

SMILES: COCc1nn(Cc2ccc(Cn3ccccc3=O)cc2)cc1C(=O)NCc1cccc(OC(F)F)c1F [Compound 13i, COCc1nn(cc1C(=O)NCc1cccc(c1F)OC(F)F)Cc1ccc(cc1)CN1C=CC=CC1=O]
- solubility kinetic (physchem): 63 to 120 µg/mL (≈ 120 to 228 µM)
- kinetic sol aq assay buffer (pH 7.4): >0.12 mg/mL
- IC50 (Human PKa): 0.15 µM
- LLE (Human PKa; lipophilic ligand efficiency): 4.2

SMILES: COCc1nn(Cc2ccc(Cn3ccccc3=O)cc2)cc1C(=O)NCc1cccc(OC)c1F [Compound 13d, COCc1nn(cc1C(=O)NCc1cccc(c1F)OC)Cc1ccc(cc1)CN1C=CC=CC1=O]
- kinetic sol 0.1 N HCl: >0.12 mg/mL
- kinetic sol aq assay buffer (pH 7.4): >0.12 mg/mL

SMILES: COc1ccnc(CNC(=O)c2cn(Cc3ccc(Cn4ccccc4=O)cc3)nc2C(F)(F)F)c1F [Compound 16, COc1ccnc(c1F)CNC(=O)c1cn(nc1C(F)(F)F)Cc1ccc(cc1)CN1C=CC=CC1=O]
- clearance at 24 h (Dog pharmacokinetics): 10 mL/min/kg
- IC50 (plasmin): > 10 µM
- IC50 (trypsin): > 10 µM
- IC50 (thrombin): > 10 µM
- IC50 (factor XIa): > 10 µM
- human plasma protein binding (PPB) [1]: 87%
- IC50 (tissue kallikrein (KLK1)): > 10 µM
- IC50 (factor XIIa): > 10 µM
- CYP450 panel profile (in words) (panel of CYP450 enzymes): clean profiles up to the highest concentration tested
- clearance at 24 h (Rat pharmacokinetics): 7.1 mL/min/kg
- kinetics (in words) (Human PKa): fast kinetics

SMILES: COCc1nn(Cc2ccc(Cn3ccccc3=O)cc2)cc1C(=O)NCc1nccc(OC)c1F [Compound 14w, 3-Methoxymethyl-1-[4-(2-oxo-2H-pyridin-1-ylmethyl)-benzyl]-1H-pyrazole-4-carboxylic Acid (3-Fluoro-4-methoxy-pyridin-2-ylmethyl)-amide]
- IC50 (factor Xa): > 10 µM
- clearance at 24 h (Dog pharmacokinetics): 8.7 mL/min/kg
- Non-GLP Ames (bacterial mutagenicity): no risk of genotoxicity
- IC50 (trypsin): > 10 µM
- IC50 (trypsin; listed as Sebetralstat): > 40 µM
- human plasma protein binding (PPB) [1]: 77%
- IC50 (tryptase): > 10 µM
- pKa [2]: 3.6
- inhibition of hERG channel (in words) (hERG channel): no significant inhibition
- CYP450 panel profile (in words) (panel of CYP450 enzymes): clean profiles up to the highest concentration tested
- clearance at 24 h (Rat pharmacokinetics): 11.7 mL/min/kg
- kinetics (in words) (Human PKa): fast kinetics

SMILES: COCc1nn(Cc2ccc(Cn3ccccc3=O)cc2)cc1C(=O)NCc1c(C#N)ccc(OC)c1F [Compound 13k, COCc1nn(cc1C(=O)NCc1c(c(ccc1C#N)OC)F)Cc1ccc(cc1)CN1C=CC=CC1=O]
- kinetic sol 0.1 N HCl: >0.12 mg/mL
- kinetic sol aq assay buffer (pH 7.4): >0.12 mg/mL
- clearance at 24 h (Rat pharmacokinetics): 16 mL/min/kg

SMILES: COc1cccc(CNC(=O)c2cn(Cc3ccc(Cn4ccccc4=O)cc3)nc2C2CC2)c1F [Compound 13f, COc1cccc(c1F)CNC(=O)c1cn(nc1C1CC1)Cc1ccc(cc1)CN1C=CC=CC1=O]
- kinetic sol 0.1 N HCl: >0.11 mg/mL
- kinetic sol aq assay buffer (pH 7.4): 0.058–0.11 mg/mL
- LLE (Human PKa; lipophilic ligand efficiency): 4.4

SMILES: COCc1nn(Cc2ccc(Cn3ccccc3=O)cc2)cc1C(=O)NCc1c(Cl)ccc(OC)c1F [Compound 13j, COCc1nn(cc1C(=O)NCc1c(ccc(c1F)OC)Cl)Cc1ccc(cc1)CN1C=CC=CC1=O]
- kinetic sol 0.1 N HCl: >0.12 mg/mL
- kinetic sol aq assay buffer (pH 7.4): >0.12 mg/mL

SMILES: COCc1nn(Cc2ccc(Cn3ccccc3=O)cc2)cc1C(=O)NCc1cccc(O)c1F [Compound 13g, COCc1nn(cc1C(=O)NCc1cccc(c1F)O)Cc1ccc(cc1)CN1C=CC=CC1=O]
- kinetic sol 0.1 N HCl: >0.12 mg/mL
- kinetic sol aq assay buffer (pH 7.4): >0.12 mg/mL

SMILES: Nc1nccc2cc(CNC(=O)c3cnn(Cc4ccc(Cn5ccccc5=O)cc4)c3)ccc12 [Compound 6, Nc1nccc2cc(ccc12)CNC(=O)c1cnn(c1)Cc1ccc(cc1)CN1C=CC=CC1=O]
- Papp A→B (in vitro [3]): 2 ×10⁻⁶ cm/s
- microsomal CLint (in vitro [4]): 37 µL/min/mg

SMILES: COCc1nn(Cc2ccc(Cn3ccccc3=O)cc2)cc1C(=O)NCc1c(F)ccc(OC)c1F [Compound 13b, COCc1nn(cc1C(=O)NCc1c(ccc(c1F)OC)F)Cc1ccc(cc1)CN1C=CC=CC1=O]
- clearance at 24 h (Dog pharmacokinetics): 11.5 mL/min/kg
- kinetic sol 0.1 N HCl: >0.12 mg/mL
- kinetic sol aq assay buffer (pH 7.4): >0.12 mg/mL
- clearance at 24 h (Rat pharmacokinetics): 12.8 mL/min/kg
- kinetics (in words) (Human PKa): fast kinetics
- LLE (Human PKa; lipophilic ligand efficiency): 5.4

SMILES: CCc1cccc(CNC(=O)c2cn(Cc3ccc(Cn4ccccc4=O)cc3)nc2COC)c1F [Compound 13h, CCc1cccc(c1F)CNC(=O)c1cn(nc1COC)Cc1ccc(cc1)CN1C=CC=CC1=O]
- solubility kinetic (physchem): 29 to 59 µg/mL (≈ 59.4 to 121 µM)
- kinetic sol aq assay buffer (pH 7.4): >0.12 mg/mL
- LLE (Human PKa): 3.7

SMILES: COc1cccc(CNC(=O)c2cn(Cc3ccc(Cn4ccccc4=O)cc3)nc2N(C)C)c1F [Compound 13e, COc1cccc(c1F)CNC(=O)c1cn(nc1N(C)C)Cc1ccc(cc1)CN1C=CC=CC1=O]
- kinetic sol 0.1 N HCl: >0.12 mg/mL
- kinetic sol aq assay buffer (pH 7.4): >0.12 mg/mL

SMILES: COCc1nn(Cc2ccc(Cn3ccccc3=O)cc2)cc1C(=O)NCc1cc(OC)ccc1F [Compound 13l, COCc1nn(cc1C(=O)NCc1cc(ccc1F)OC)Cc1ccc(cc1)CN1C=CC=CC1=O]
- kinetic sol 0.1 N HCl: >0.12 mg/mL
- kinetic sol aq assay buffer (pH 7.4): >0.12 mg/mL

SMILES: COCc1nn(Cc2ccc(Cn3ccccc3=O)cc2)cc1C(=O)NCc1nccc(OC)c1C [Compound 14s, COCc1nn(cc1C(=O)NCc1nccc(c1C)OC)Cc1ccc(cc1)CN1C=CC=CC1=O]
- IC50 (plasmin): > 10 µM
- solubility at 4 h [5]: > 100 µg/mL
- IC50 (thrombin): 7.5 µM
- IC50 (factor XIa): > 10 µM
- IC50 (tissue kallikrein (KLK1)): > 10 µM
- IC50 (factor XIIa): > 10 µM
- clearance at 24 h (Rat pharmacokinetics): 14 mL/min/kg
